Values quoted from earlier work, collected in patent US7009061B2, “Diterpene compounds” (Nihon University, priority 2003, dated 2006).

System: P-388 cells

Compound	depressive activities against P-388 cells in vivo
CCCCCCCCCCCCCCCC(=O)OCC1=C[C@@H]2C(=O)[C@]3(C=C(C)[C@H](OC(=O)C(C)C(C)C)[C@@]3(O)[C@@H]1O)[C@H](C)C[C@]1(OC(=O)CCCCCCCCCCC)[C@H]2C1(C)C (some centres unmarked) [kansuiphorin A]	depressive activities
kanusiphorin B	depressive activities
